Experimental data published in patent US8883827B2, “Azole derivatives as WTN pathway inhibitors” (Oslo University Hospital HF, priority 2009, dated 2014).

What was measured:
canonical Wnt signaling = assay: ST-Luc (SuperTOPFlash) Luciferase assay in HEK293 cells, 30% Wnt3a-CM; assay type: cell-based; conditions: Homo sapiens, 24 h
How it was run: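 HEK293 cells were transiently co-transfected with SuperTOPFlash firefly luciferase and pRL-TK Renilla reporters, then treated 24 h with 10 μM compound in 30% Wnt3a-conditioned medium. Dual luciferase activity was read, and percent activity was expressed relative to DMSO control.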

[1] = test system: HeLa (cervical adenocarcinoma) cells; assay: MTS cell growth assay (Example 27); assay type: cell-based; conditions: 72 h
Method: (§1) 3000 cells were seeded on 96 well plates in quadruplicates for each sample. The following day, cell culture medium was mixed with compound No. 1 in various concentrations or with 0.5% DMSO vehicle (control) and added to the wells.
(§2) Eight wells of seeded control cells, defining incubation time 0 (t0), were incubated with 20 μl substrate in 100 μl phenol-free D-MEM (Invitrogen) for 3 hours, as described in the CellTiter 96® AQueous Non-Radioactive Cell Proliferation Assay (MTS) protocol (Promega). The A490 value was recorded.
(§3) Samples were measured after 72 hours. The following formula was used to determine the single well relative A490 sample values: ((Sample A490−Average A490 to)×100)/(Average A490 0.5% DMSO control−Average A490 t0).

MeWo (melanoma) cells = assay: MTS cell growth assay (Example 27); assay type: cell-based; conditions: 72 h
Method: as §1, §2, §3

[2] = test system: THLE2 (hepatocytes) cells; assay: MTS cell growth assay (Example 27); assay type: cell-based; conditions: 72 h
Method: as §1, §2, §3

[3] = test system: panel of phosphatases and kinases; assay: KinaseProfiler phosphatase and kinase panel (whole); assay type: biochemical; conditions: 10 μM compound
DUSP22(h) = biological target: T1, DUSP22(h) (Homo sapiens, UniProt Q9NRW4); assay: Phosphatase screen; assay type: biochemical; conditions: 0.1% DMSO control = 100%
T1 construct: purchased Millipore (KinaseProfiler service)

PTP MEG1(h) = biological target: T2, PTP MEG1(h) (Homo sapiens, UniProt P29074); assay: Phosphatase screen; assay type: biochemical; conditions: 0.1% DMSO control = 100%
T2 construct: purchased Millipore (KinaseProfiler service)

YopH(y) = conditions: 10 μM
Abl(h) = biological target: T3, Abl(h) (Homo sapiens, UniProt P00519); assay: Kinase screen; assay type: biochemical; conditions: 0.1% DMSO control = 100%
T3 construct: purchased Millipore (KinaseProfiler service)

AMPKα1(h) = biological target: T4, AMPKα1(h) (Homo sapiens, UniProt Q13131); assay: Kinase screen; assay type: biochemical; conditions: 0.1% DMSO control = 100%
T4 construct: purchased Millipore (KinaseProfiler service)

CDK2/cyclinA(h) = biological target: T5, CDK2/cyclinA(h) (Homo sapiens, UniProt P24941); assay: Kinase screen; assay type: biochemical; conditions: 0.1% DMSO control = 100%
T5 construct: purchased Millipore (KinaseProfiler service)

CK1γ1(h) = biological target: T6, CK1γ1(h) (Homo sapiens, UniProt Q9HCP0); assay: Kinase screen; assay type: biochemical; conditions: 0.1% DMSO control = 100%
T6 construct: purchased Millipore (KinaseProfiler service)

CK2(h) = biological target: T7, CK2(h) (Homo sapiens, UniProt P68400); assay: Kinase screen; assay type: biochemical; conditions: 0.1% DMSO control = 100%
T7 construct: purchased Millipore (KinaseProfiler service)

cSRC(h) = biological target: T8, cSRC(h) (Homo sapiens, UniProt P12931); assay: Kinase screen; assay type: biochemical; conditions: 0.1% DMSO control = 100%
T8 construct: purchased Millipore (KinaseProfiler service)

GSK3β(h) = biological target: T9, GSK3β(h) (Homo sapiens, UniProt P49841); assay: Kinase screen; assay type: biochemical; conditions: 0.1% DMSO control = 100%
T9 construct: purchased Millipore (KinaseProfiler service)

IRAK4(h) = biological target: T10, IRAK4(h) (Homo sapiens, UniProt Q9NWZ3); assay: Kinase screen; assay type: biochemical; conditions: 0.1% DMSO control = 100%
T10 construct: purchased Millipore (KinaseProfiler service)

JAK2(h) = biological target: T11, JAK2(h) (Homo sapiens, UniProt O60674); assay: Kinase screen; assay type: biochemical; conditions: 0.1% DMSO control = 100%
T11 construct: purchased Millipore (KinaseProfiler service)

MAPKAP-K2(h) = biological target: T12, MAPKAP-K2(h) (Homo sapiens, UniProt P49137); assay: Kinase screen; assay type: biochemical; conditions: 0.1% DMSO control = 100%
T12 construct: purchased Millipore (KinaseProfiler service)

Mnk2(h) = biological target: T13, Mnk2(h) (Homo sapiens, UniProt Q9HBH9); assay: Kinase screen; assay type: biochemical; conditions: 0.1% DMSO control = 100%
T13 construct: purchased Millipore (KinaseProfiler service)

MST1(h) = biological target: T14, MST1(h) (Homo sapiens, UniProt Q13043); assay: Kinase screen; assay type: biochemical; conditions: 0.1% DMSO control = 100%
T14 construct: purchased Millipore (KinaseProfiler service)

p70S6K(h) = biological target: T15, p70S6K(h) (Homo sapiens, UniProt P23443); assay: Kinase screen; assay type: biochemical; conditions: 0.1% DMSO control = 100%
T15 construct: purchased Millipore (KinaseProfiler service)

PKA(h) = biological target: T16, PKA(h) (Homo sapiens, UniProt P17612); assay: Kinase screen; assay type: biochemical; conditions: 0.1% DMSO control = 100%
T16 construct: purchased Millipore (KinaseProfiler service)

PKBα(h) = biological target: T17, PKBα(h) (Homo sapiens, UniProt P31749); assay: Kinase screen; assay type: biochemical; conditions: 0.1% DMSO control = 100%
T17 construct: purchased Millipore (KinaseProfiler service)

Hh (Shh) pathway = assay: Shh Light II (Gli1-Luc) reporter assay; conditions: 1 or 10 μM, 48 h, 50% Shh-CM
From the text: 1) a stable reporter line for sonic hedgehog pathway, Shh Light II cells (Glil-Luc-purchased from ATCC and maintained according to suppliers recommendations);

T14 sequence (Q13043 whole entry): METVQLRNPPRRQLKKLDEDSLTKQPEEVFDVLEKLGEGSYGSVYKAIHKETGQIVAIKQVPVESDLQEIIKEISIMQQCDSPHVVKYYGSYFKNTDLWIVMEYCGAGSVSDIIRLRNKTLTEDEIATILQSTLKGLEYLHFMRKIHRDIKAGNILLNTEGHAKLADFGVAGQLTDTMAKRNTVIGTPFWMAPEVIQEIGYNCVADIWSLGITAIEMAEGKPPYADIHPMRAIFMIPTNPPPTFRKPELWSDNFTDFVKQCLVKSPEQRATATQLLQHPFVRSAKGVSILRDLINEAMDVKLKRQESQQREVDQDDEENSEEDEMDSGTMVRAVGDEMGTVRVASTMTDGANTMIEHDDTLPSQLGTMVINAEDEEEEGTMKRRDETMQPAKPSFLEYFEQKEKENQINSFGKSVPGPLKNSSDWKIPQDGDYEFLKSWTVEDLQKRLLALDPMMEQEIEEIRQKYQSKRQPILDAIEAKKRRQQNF
T8 sequence (P12931 whole entry): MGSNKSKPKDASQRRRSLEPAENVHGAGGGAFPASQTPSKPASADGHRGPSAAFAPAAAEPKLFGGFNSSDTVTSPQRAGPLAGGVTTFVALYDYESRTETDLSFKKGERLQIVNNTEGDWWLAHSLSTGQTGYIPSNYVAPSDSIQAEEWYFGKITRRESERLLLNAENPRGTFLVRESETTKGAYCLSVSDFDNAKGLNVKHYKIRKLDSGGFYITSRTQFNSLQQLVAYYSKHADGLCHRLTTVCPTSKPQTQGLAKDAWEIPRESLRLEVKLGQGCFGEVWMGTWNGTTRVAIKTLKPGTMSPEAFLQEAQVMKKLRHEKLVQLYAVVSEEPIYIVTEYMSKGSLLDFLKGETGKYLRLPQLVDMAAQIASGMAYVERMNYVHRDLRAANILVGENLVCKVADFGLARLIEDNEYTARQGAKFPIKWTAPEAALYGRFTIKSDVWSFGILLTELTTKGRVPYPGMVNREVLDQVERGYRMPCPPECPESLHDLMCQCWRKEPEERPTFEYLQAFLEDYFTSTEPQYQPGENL
T7 sequence (P68400 whole entry): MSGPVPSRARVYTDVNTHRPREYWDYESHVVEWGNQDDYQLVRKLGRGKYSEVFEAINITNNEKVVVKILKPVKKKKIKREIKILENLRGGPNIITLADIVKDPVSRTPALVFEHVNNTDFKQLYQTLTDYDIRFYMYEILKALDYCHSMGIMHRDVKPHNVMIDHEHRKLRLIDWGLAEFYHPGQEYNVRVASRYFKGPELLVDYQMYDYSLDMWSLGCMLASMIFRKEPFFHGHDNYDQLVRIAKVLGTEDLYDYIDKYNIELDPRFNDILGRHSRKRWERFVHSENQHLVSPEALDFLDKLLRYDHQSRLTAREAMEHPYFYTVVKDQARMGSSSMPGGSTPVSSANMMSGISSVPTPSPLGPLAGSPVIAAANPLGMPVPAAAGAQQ
T7 sequence (P67870 whole entry partner): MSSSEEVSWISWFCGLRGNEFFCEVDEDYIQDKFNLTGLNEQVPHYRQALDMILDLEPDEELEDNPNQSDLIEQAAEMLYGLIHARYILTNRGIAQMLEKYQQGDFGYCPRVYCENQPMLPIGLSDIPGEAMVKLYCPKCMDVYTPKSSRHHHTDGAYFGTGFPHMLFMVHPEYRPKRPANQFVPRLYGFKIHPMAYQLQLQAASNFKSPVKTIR
T15 sequence (P23443 whole entry): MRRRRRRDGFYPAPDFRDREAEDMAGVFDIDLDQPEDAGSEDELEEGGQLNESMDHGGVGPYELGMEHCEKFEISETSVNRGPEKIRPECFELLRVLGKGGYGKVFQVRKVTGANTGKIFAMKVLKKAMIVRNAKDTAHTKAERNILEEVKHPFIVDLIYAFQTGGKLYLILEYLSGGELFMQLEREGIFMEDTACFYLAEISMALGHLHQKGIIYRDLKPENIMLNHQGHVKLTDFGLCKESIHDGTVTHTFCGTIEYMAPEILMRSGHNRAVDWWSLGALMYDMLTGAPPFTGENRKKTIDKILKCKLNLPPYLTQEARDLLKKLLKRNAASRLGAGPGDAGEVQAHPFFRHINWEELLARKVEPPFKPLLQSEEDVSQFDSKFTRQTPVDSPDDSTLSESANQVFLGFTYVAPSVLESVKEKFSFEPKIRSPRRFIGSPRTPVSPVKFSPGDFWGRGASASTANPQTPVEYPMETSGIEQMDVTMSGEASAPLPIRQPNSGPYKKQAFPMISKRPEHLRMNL
T4 sequence (Q13131 whole entry): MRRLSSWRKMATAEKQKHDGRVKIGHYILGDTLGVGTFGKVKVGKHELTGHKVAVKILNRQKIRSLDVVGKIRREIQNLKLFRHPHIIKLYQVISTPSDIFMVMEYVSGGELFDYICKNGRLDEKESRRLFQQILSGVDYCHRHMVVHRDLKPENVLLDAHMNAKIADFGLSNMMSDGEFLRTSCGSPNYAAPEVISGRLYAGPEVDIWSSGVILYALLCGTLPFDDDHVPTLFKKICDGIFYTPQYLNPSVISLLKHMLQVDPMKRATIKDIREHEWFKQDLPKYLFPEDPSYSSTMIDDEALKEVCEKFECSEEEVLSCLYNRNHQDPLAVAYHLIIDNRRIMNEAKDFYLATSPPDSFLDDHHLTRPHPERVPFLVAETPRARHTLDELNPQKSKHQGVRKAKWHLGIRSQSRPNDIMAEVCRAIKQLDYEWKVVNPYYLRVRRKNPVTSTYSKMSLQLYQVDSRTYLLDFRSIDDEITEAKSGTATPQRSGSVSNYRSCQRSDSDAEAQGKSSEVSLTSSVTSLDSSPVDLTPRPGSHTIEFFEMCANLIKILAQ
T4 sequence (Q9Y478 whole entry partner): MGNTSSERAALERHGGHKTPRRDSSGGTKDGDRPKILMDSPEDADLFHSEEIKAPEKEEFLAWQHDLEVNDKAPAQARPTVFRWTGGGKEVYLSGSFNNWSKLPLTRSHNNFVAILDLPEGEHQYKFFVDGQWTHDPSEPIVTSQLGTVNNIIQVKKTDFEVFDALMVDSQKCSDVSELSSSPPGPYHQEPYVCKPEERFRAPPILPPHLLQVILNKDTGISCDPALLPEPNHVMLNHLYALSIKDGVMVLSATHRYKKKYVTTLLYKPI
T4 sequence (P54619 whole entry partner): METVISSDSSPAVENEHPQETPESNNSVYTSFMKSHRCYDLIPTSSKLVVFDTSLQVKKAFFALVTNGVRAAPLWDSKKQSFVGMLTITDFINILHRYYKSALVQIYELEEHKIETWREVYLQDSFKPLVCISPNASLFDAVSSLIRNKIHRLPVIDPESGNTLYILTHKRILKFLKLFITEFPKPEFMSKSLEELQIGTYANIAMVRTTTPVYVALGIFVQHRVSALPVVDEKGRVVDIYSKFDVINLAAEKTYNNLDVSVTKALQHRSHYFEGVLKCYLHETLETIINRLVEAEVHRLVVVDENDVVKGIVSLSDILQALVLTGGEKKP
T13 sequence (Q9HBH9 whole entry): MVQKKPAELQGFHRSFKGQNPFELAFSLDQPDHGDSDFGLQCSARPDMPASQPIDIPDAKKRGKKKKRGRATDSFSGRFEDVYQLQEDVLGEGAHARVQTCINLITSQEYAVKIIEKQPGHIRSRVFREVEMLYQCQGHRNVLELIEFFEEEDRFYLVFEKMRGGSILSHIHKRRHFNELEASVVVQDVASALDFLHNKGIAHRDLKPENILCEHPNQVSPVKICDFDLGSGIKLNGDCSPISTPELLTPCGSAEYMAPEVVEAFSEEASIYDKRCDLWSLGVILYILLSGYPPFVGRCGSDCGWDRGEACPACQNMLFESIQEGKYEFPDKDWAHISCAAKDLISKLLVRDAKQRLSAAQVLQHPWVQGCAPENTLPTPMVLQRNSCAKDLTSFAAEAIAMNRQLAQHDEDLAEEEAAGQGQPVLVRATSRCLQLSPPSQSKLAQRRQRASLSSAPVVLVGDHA
T11 sequence (O60674 whole entry): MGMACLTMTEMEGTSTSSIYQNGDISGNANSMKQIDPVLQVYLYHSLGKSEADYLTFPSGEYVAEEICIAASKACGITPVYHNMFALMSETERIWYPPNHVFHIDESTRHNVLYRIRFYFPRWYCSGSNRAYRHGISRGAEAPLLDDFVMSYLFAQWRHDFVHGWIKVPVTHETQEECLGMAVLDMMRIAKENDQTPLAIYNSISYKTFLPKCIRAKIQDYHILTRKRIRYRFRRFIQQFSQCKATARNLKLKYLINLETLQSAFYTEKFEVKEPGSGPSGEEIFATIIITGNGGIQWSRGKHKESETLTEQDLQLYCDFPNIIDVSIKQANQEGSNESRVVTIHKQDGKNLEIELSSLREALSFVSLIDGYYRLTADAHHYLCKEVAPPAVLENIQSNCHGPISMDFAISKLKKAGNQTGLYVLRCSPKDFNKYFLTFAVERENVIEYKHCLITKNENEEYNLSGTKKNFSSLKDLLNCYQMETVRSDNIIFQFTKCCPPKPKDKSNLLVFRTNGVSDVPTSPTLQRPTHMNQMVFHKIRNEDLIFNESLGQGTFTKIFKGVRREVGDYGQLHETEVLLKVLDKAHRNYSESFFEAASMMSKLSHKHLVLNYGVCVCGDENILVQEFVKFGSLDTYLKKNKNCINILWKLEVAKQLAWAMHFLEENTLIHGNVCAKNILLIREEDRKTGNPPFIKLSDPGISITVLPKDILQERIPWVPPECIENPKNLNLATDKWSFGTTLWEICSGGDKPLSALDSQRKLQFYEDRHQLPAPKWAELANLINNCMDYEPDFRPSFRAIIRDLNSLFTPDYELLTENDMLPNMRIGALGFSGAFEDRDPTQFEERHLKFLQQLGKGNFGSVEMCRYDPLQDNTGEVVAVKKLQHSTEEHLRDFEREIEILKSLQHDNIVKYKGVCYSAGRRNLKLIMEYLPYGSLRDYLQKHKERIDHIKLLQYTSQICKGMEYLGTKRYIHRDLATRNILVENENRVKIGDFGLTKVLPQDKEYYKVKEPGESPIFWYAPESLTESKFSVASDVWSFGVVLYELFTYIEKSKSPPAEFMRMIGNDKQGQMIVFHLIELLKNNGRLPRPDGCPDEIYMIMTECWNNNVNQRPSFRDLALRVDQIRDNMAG

## COc1ccc(-n2c(SCc3nc(-c4ccc(C)cc4)no3)nnc2-c2ccncc2)cc1 [Compound 1]
Canonical Wnt signaling; HEK293, 10 μM compound, 30% Wnt3a-CM, relative to DMSO control
  activity at 10 µM: 15.4%
Canonical Wnt signaling; HEK293, 30% Wnt3a-CM, 0.1-10 μM, read-out: IC50, reduction of canonical Wnt signaling by the ST-Luc assay
  IC50: 1000 nM
[1]
  growth reduction: only a minor growth reduction
MeWo (melanoma) cells
  growth reduction: only a minor growth reduction
[2]
  growth reduction: only a minor growth reduction
[3]
  inhibition of kinase or phosphatase activity: No extensive inhibition
DUSP22(h)
  activity at 10 µM: 101%
PTP MEG1(h)
  activity at 10 µM: 92%
YopH(y)
  Activity (%): 94%
Abl(h)
  activity at 10 µM: 93%
AMPKα1(h)
  activity at 10 µM: 95%
CDK2/cyclinA(h)
  activity at 10 µM: 106%
CK1γ1(h)
  activity at 10 µM: 100%
CK2(h)
  activity at 10 µM: 105%
cSRC(h)
  activity at 10 µM: 100%
GSK3β(h)
  activity at 10 µM: 90%
IRAK4(h)
  activity at 10 µM: 98%
JAK2(h)
  activity at 10 µM: 118%
MAPKAP-K2(h)
  activity at 10 µM: 85%
Mnk2(h)
  activity at 10 µM: 108%
MST1(h)
  activity at 10 µM: 106%
p70S6K(h)
  activity at 10 µM: 113%
PKA(h)
  activity at 10 µM: 86%
PKBα(h)
  activity at 10 µM: 79%
Hh (Shh) pathway
  effect against the Hh (Shh) pathway: no substantial activating or inhibitory effect
